“And” between values parts separate entries of the source, which are not always exact repeats. Equal entries are not always repeated.
Target: T1, Tyrosine-protein phosphatase non-receptor type 1 (Homo sapiens, UniProt P18031)
T1 sequence (P18031 whole entry): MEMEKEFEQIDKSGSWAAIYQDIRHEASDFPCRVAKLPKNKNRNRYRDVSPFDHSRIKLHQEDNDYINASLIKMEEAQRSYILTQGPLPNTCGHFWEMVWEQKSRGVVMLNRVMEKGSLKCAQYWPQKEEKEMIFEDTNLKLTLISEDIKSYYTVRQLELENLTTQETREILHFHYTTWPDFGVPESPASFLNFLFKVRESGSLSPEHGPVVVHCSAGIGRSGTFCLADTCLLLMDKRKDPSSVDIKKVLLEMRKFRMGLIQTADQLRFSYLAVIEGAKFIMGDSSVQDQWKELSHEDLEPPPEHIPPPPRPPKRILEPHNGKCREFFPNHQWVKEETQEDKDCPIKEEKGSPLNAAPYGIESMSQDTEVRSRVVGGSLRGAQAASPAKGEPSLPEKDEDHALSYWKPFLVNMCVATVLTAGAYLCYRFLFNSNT
Assay: Non-competitive reversible inhibition of human PTP1B

SMILES | IC50
COc1ccccc1-n1nc2c(c(C#N)c1=N)CC(C)(C)OC2 | 6.19 µM and 6.2 µM
CCc1cccc(-n2nc3c(c(C#N)c2=N)CC(C)(C)OC3)c1 | 8.2 µM
CCc1ccc(-n2nc3c(c(C#N)c2=N)CC(C)(C)OC3)cc1 | 2.8 µM
CC1(C)Cc2c(nn(-c3ccccc3C(F)(F)F)c(=N)c2C#N)CO1 | 3.9 µM
CC(C)c1cccc(-n2nc3c(c(C#N)c2=N)CC(C)(C)OC3)c1 | 8.2 µM
CC(C)c1ccccc1-n1nc2c(c(C#N)c1=N)CCSC2 | 2 µM
CC1(C)Cc2c(nn(-c3cccc(C(F)(F)F)c3)c(=N)c2C#N)CO1 | 2.8 µM
CC1(C)Cc2c(nn(-c3ccccc3N3CCOCC3)c(=N)c2C#N)CO1 | 2.9 µM
CC1(C)Cc2c(nn(-c3ccccc3F)c(=N)c2C#N)CO1 | 2.4 µM
N#Cc1c2c(nn(-c3ccc(F)cc3)c1=N)CSCC2 | 2 µM
CC1(C)Cc2c(nn(-c3cccc(Oc4ccccc4)c3)c(=N)c2C#N)CO1 | 3.9 µM
CCCCc1ccc(-n2nc3c(c(C#N)c2=N)CC(C)(C)OC3)cc1 | 7 µM
CC1(C)Cc2c(nn(-c3ccc(CCO)cc3)c(=N)c2C#N)CO1 | 2.9 µM
CC1(C)Cc2c(nn(-c3cccc(CO)c3)c(=N)c2C#N)CO1 | 2.4 µM
CC(=O)Nc1ccc(-n2nc3c(c(C#N)c2=N)CC(C)(C)OC3)cc1 | 6.1 µM
